Laboratory results reported in patent US11945794B2, “Nuclear transport modulators and uses thereof” (Karyopharm Therapeutics Inc., priority 2013, dated 2024).

How the values were obtained:
Type in all cases: cell-based
[1] = target: T1, CRM1 (Homo sapiens, UniProt O14980); experiment: Inhibition of nuclear export, RevGFP assay in U2OS-RevGFP cells; settings: approximately 1 hour incubation
T1 construct: endogenous in cells; host or cells: U2OS cells stably expressing Rev-GFP
Procedure: The inhibition of CRM1 mediated nuclear export by compounds of the invention was determined in a RevGFP assay. Rev is a protein from human immunodeficiency virus type 1 (HIV-1) and contains a nuclear export signal (NES) in its C-terminal domain and a nuclear localization signal (NLS) in its N-terminal domain. Nuclear export of Rev protein is dependent on the classical NES/CRM1 pathway (Neville et al, 1997, Kau et al, 2003).
In this assay, U2OS-RevGFP cells were seeded onto clear-bottom, black, 384-well plates the day before the experiment. Compounds were serially diluted 1:2 starting from 40 μM in a separate 384-well plate in DMEM, and then transferred onto cells. Cells were incubated with compound for approximately 1 hour before fixation with 3.7% formaldehyde and nuclei staining with Hoechst 33258. The amount of GFP in cell nuclei was measured and compound IC50s were determined (Kau et al, 2003).

[2] = system: 3T3 cells; experiment: MTT cell proliferation assay; settings: Mus musculus, NIH3T3, approximately 64-72 hours
Procedure: (§1) The MTT cell proliferation assay was used to study the cytotoxic properties of the compounds. The assay was performed according to the method described by Roche Molecular Biochemicals, with minor modifications. The assay is based on the cleavage of the tetrazolium salt, MTT, in the presence of an electron-coupling reagent. The water-insoluble formazan salt produced must be solubilized in an additional step. Cells grown in a 96-well tissue culture plate were incubated with the MTT solution for approximately 4 hours. After this incubation period, a water-insoluble formazan dye formed. After solubilization, the formazan dye was quantitated using a scanning multi-well spectrophotometer (ELISA reader). […] The cells were seeded at 5,000-10,000 cells in each well of 96-well plate in 100 μL of fresh culture medium and were allowed to attach overnight. The stock solutions of the compounds were diluted in 100 μL cell culture medium to obtain eight concentrations of each test compound, ranging from 1 nM to 30 μM. […] All optical densities were measured at 490 nm using a Vmax Kinetic Microplate Reader (Molecular Devices). In most cases, the assay was performed in duplicate and the results were presented as a mean percent inhibition to the negative control±SE. The following formula was used to calculate the percent of inhibition: Inhibition (%)=(1−(ODo/OD))×100.
(§2) The compounds were tested against Z138, MM1S and 3T3 cells. The Z138 cell line is a mature B-cell acute lymphoblastic leukemia cell line derived from a patient with chronic lumphocytic leukemia. The MM1S cell line was established from the peripheral blood of a human multiple myeloma patient. 3T3 cells are standard fibroblast cells; they were originally isolated from Swiss mouse embryo tissue.

[3] = system: MM1S cells; experiment: MTT cell proliferation assay; settings: Homo sapiens, MM1.S, approximately 64-72 hours
Procedure: as §1, §2

[4] = system: Z138 cells; experiment: MTT cell proliferation assay; settings: Homo sapiens, Z-138, approximately 64-72 hours
Procedure: as §1, §2

T1 sequence (O14980 whole entry): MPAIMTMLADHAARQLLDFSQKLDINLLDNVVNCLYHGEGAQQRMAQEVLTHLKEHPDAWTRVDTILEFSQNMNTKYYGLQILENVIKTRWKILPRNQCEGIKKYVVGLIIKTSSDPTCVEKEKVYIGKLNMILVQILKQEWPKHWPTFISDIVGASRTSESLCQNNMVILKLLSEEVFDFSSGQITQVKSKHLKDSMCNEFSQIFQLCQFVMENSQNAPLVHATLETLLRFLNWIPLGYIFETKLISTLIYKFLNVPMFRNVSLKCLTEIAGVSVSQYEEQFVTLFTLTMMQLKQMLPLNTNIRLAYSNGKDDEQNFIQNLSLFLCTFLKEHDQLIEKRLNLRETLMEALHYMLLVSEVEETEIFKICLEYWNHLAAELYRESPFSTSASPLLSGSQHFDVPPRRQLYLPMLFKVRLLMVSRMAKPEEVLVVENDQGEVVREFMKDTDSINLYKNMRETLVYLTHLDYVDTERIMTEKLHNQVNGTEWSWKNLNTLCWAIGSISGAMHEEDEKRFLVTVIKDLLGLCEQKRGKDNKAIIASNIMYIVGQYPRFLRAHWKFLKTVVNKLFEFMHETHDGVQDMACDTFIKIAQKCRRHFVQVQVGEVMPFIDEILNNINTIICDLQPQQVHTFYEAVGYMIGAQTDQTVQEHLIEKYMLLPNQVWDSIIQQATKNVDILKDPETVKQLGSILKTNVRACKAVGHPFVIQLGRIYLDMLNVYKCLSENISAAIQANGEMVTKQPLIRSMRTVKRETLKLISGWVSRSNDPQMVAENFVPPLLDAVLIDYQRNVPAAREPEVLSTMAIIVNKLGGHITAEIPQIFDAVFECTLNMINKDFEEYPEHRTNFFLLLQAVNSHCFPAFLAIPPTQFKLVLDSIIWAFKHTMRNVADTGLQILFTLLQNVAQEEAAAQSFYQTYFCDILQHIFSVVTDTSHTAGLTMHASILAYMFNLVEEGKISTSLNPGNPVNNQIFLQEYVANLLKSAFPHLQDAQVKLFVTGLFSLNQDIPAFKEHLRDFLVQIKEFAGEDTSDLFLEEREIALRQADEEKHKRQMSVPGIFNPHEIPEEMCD

## N#CC(=Cn1cnc(-c2cc(C(F)(F)F)cc(C(F)(F)F)c2)n1)c1ccccn1 [Compound 100, 3-(3-(3,5-bis(trifluoromethyl)phenyl)-1H-1,2,4-triazol-1-yl)-2-(pyridin-2-yl)acrylonitrile]
[1]
  IC50: > 30000 nM
[2]
  IC50: > 30 µM
[3]
  IC50: > 30000 nM
[4]
  IC50: > 30000 nM

## CC(C)OC(=O)/C(=C/n1cnc(-c2cc(C(F)(F)F)cc(C(F)(F)F)c2)n1)c1cccnc1 [Compound 101, (E)-isopropyl 3-(3-(3,5-bis(trifluoromethyl)phenyl)-1H-1,2,4-triazol-1-yl)-2-(pyridin-3-yl)acrylate]
[1]
  IC50: 5000 to 30000 nM
[2]
  IC50: 5 to 30 µM
[3]
  IC50: < 100 nM
[4]
  IC50: 100 to 5000 nM

## N#C/C(=C/n1cnc(-c2cc(C(F)(F)F)cc(C(F)(F)F)c2)n1)c1cccnc1 [Compound 102, (E)-3-(3-(3,5-bis(trifluoromethyl)phenyl)-1H-1,2,4-triazol-1-yl)-2-(pyridin-3-yl)acrylonitrile]
[1]
  IC50: 100 to 5000 nM
[2]
  IC50: 5 to 30 µM
[3]
  IC50: 100 to 5000 nM
[4]
  IC50: 100 to 5000 nM

## NC(=O)/C(=C/n1cnc(-c2cc(C(F)(F)F)cc(C(F)(F)F)c2)n1)c1cccnc1 [Compound 104, (E)-3-(3-(3,5-bis(trifluoromethyl)phenyl)-1H-1,2,4-triazol-1-yl)-2-(pyridin-3-yl)acrylamide]
[1]
  IC50: 100 to 5000 nM
[2]
  IC50: 0.1 to 5 µM
[3]
  IC50: < 100 nM
[4]
  IC50: < 100 nM

## N#C/C(=C/n1cnc(-c2cc(C(F)(F)F)cc(C(F)(F)F)c2)n1)c1ccncc1 [Compound 105, (E)-3-(3-(3,5-bis(trifluoromethyl)phenyl)-1H-1,2,4-triazol-1-yl)-2-(pyridin-4-yl)acrylonitrile]
[1]
  IC50: 100 to 5000 nM
[2]
  IC50: > 30 µM
[3]
  IC50: 100 to 5000 nM

## NC(=O)/C(=C/n1cnc(-c2cc(C(F)(F)F)cc(C(F)(F)F)c2)n1)c1ccncc1 [Compound 108, (E)-3-(3-(3,5-bis(trifluoromethyl)phenyl)-1H-1,2,4-triazol-1-yl)-2-(pyridin-4-yl)acrylamide]
[1]
  IC50: < 100 nM
[2]
  IC50: > 30 µM
[3]
  IC50: < 100 nM
[4]
  IC50: 100 to 5000 nM

## NC(=O)/C(=C/n1cnc(-c2cc(C(F)(F)F)cc(C(F)(F)F)c2)n1)c1nccs1 [Compound 111, (Z)-3-(3-(3,5-bis(trifluoromethyl)phenyl)-1H-1,2,4-triazol-1-yl)-2-(thiazol-2-yl)acrylamide]
[1]
  IC50: < 100 nM
[2]
  IC50: > 30 µM
[3]
  IC50: < 100 nM

## CN(C)C(=O)/C(=C/n1cnc(-c2cc(C(F)(F)F)cc(C(F)(F)F)c2)n1)c1ccncc1 [Compound 113, (E)-3-(3-(3,5-bis(trifluoromethyl)phenyl)-1H-1,2,4-triazol-1-yl)-N,N-dimethyl-2-(pyridin-4-yl)acrylamide]
[1]
  IC50: 5000 to 30000 nM
[3]
  IC50: 100 to 5000 nM

## Cn1cc(/C(=C\n2cnc(-c3cc(C(F)(F)F)cc(C(F)(F)F)c3)n2)C(N)=O)cn1 [Compound 114, (E)-3-(3-(3,5-bis(trifluoromethyl)phenyl)-1H-1,2,4-triazol-1-yl)-2-(1-methyl-1H-pyrazol-4-yl)acrylamide]
[1]
  IC50: 100 to 5000 nM
[3]
  IC50: < 100 nM

## CC(C)OC(=O)/C(=C/n1cnc(-c2cc(C(F)(F)F)cc(C(F)(F)F)c2)n1)c1cncnc1 [Compound 115, isopropyl (E)-3-(3-(3,5-bis(trifluoromethyl)phenyl)-1H-1,2,4-triazol-1-yl)-2-(pyrimidin-5-yl)acrylate]
[1]
  IC50: 100 to 5000 nM
[3]
  IC50: 100 to 5000 nM

## Cc1noc(C)c1/C(=C\n1cnc(-c2cc(C(F)(F)F)cc(C(F)(F)F)c2)n1)C(=O)OC(C)C [Compound 116, isopropyl (E)-3-(3-(3,5-bis (trifluoromethyl)phenyl)-1H-1,2,4-triazol-1-yl)-2-(3,5-dimethylisoxazol-4-yl) acrylate]
[1]
  IC50: 100 to 5000 nM
[3]
  IC50: 100 to 5000 nM

## Cc1noc(C)c1/C(=C\n1cnc(-c2cc(C(F)(F)F)cc(C(F)(F)F)c2)n1)C(N)=O [Compound 118, (E)-3-(3-(3,5-bis(trifluoromethyl)phenyl)-1H-1,2,4-triazol-1-yl)-2-(3,5-dimethylisoxazol-4-yl) acrylamide]
[1]
  IC50: 100 to 5000 nM
[2]
  IC50: > 30 µM
[3]
  IC50: 100 to 5000 nM
[4]
  IC50: 100 to 5000 nM

## CC(C)OC(=O)/C(=C/n1cnc(-c2cc(C(F)(F)F)cc(C(F)(F)F)c2)n1)c1cncc(F)c1 [Compound 119, isopropyl (E)-3-(3-(3,5-bis(trifluoromethyl)phenyl)-1H-1,2,4-triazol-1-yl)-2-(5-fluoropyridin-3-yl)acrylate]
[1]
  IC50: 100 to 5000 nM
[2]
  IC50: > 30 µM
[3]
  IC50: 100 to 5000 nM
[4]
  IC50: 100 to 5000 nM

## COc1ccc(/C(=C\n2cnc(-c3cc(C(F)(F)F)cc(C(F)(F)F)c3)n2)C(=O)OC(C)C)cn1 [Compound 120, isopropyl (E)-3-(3-(3,5-bis (trifluoromethyl)phenyl)-1H-1,2,4-triazol-1-yl)-2-(6-methoxypyridin-3-yl) acrylate]
[1]
  IC50: 100 to 5000 nM
[2]
  IC50: > 30 µM
[3]
  IC50: 100 to 5000 nM
[4]
  IC50: 100 to 5000 nM

## CC(C)OC(=O)/C(=C/n1cnc(-c2cc(C(F)(F)F)cc(C(F)(F)F)c2)n1)c1cnn(C)c1 [Compound 130, isopropyl (E)-3-(3-(3,5-bis(trifluoromethyl)phenyl)-1H-1,2,4-triazol-1-yl)-2-(1-methyl-1H-pyrazol-4-yl)acrylate]
[1]
  IC50: 100 to 5000 nM
[3]
  IC50: < 100 nM

## NC(=O)/C(=C/n1cnc(-c2cc(C(F)(F)F)cc(C(F)(F)F)c2)n1)c1cncc(F)c1 [Compound 132, (E)-3-(3-(3,5-bis(trifluoromethyl)phenyl)-1H-1,2,4-triazol-1-yl)-2-(5-fluoropyridin-3-yl)acrylamide]
[1]
  IC50: < 100 nM

## NC(=O)/C(=C/n1cnc(-c2cc(C(F)(F)F)cc(C(F)(F)F)c2)n1)c1cnc(N)nc1 [Compound 136, (E)-2-(2-aminopyrimidin-5-yl)-3-(3-(3,5-bis(trifluoromethyl)phenyl)-1H-1,2,4-triazol-1-yl)acrylamide]
[1]
  IC50: 100 to 5000 nM
[2]
  IC50: > 30 µM
[3]
  IC50: < 100 nM
[4]
  IC50: 100 to 5000 nM

## NC(=O)/C(=C/n1cnc(-c2cc(C(F)(F)F)cc(C(F)(F)F)c2)n1)c1cnc(F)nc1 [Compound 137, (E)-3-(3-(3,5-bis(trifluoromethyl)phenyl)-1H-1,2,4-triazol-1-yl)-2-(2-fluoropyrimidin-5-yl)acrylamide]
[1]
  IC50: < 100 nM
[2]
  IC50: > 30 µM
[3]
  IC50: < 100 nM
[4]
  IC50: 100 to 5000 nM

## NC(=O)/C(=C/n1cnc(-c2cc(C(F)(F)F)cc(C(F)(F)F)c2)n1)c1ccncc1F [Compound 138, (E)-3-(3-(3,5-bis(trifluoromethyl)phenyl)-1H-1,2,4-triazol-1-yl)-2-(3-fluoropyridin-4-yl)acrylamide]
[1]
  IC50: < 100 nM
[2]
  IC50: 0.1 to 5 µM
[3]
  IC50: < 100 nM
[4]
  IC50: < 100 nM

## NC(=O)/C(=C/n1cnc(-c2cc(C(F)(F)F)cc(C(F)(F)F)c2)n1)c1ccnc(F)c1 [Compound 140, (E)-3-(3-(3,5-bis(trifluoromethyl)phenyl)-1H-1,2,4-triazol-1-yl)-2-(2-fluoropyridin-4-yl)acrylamide]
[1]
  IC50: < 100 nM
[2]
  IC50: > 30 µM
[3]
  IC50: < 100 nM
[4]
  IC50: < 100 nM

## NC(=O)/C(=C/n1cnc(-c2cc(C(F)(F)F)cc(C(F)(F)F)c2)n1)c1cncc(Cl)c1 [Compound 141, (E)-3-(3-(3,5-bis(trifluoromethyl)phenyl)-1H-1,2,4-triazol-1-yl)-2-(5-chloropyridin-3-yl)acrylamide]
[1]
  IC50: 100 to 5000 nM
[2]
  IC50: > 30 µM
[3]
  IC50: < 100 nM
[4]
  IC50: 100 to 5000 nM

## NC(=O)/C(=C/n1cnc(-c2cc(C(F)(F)F)cc(C(F)(F)F)c2)n1)c1ccc(Cl)nc1 [Compound 143, (E)-3-(3-(3,5-bis(trifluoromethyl)phenyl)-1H-1,2,4-triazol-1-yl)-2-(6-chloropyridin-3-yl)acrylamide]
[1]
  IC50: 100 to 5000 nM
[2]
  IC50: > 30 µM
[3]
  IC50: < 100 nM
[4]
  IC50: 100 to 5000 nM

## NC(=O)/C(=C/n1cnc(-c2cc(C(F)(F)F)cc(C(F)(F)F)c2)n1)c1ccnc(C(F)(F)F)c1 [Compound 147, (E)-3-(3-(3,5-bis(trifluoromethyl)phenyl)-1H-1,2,4-triazol-1-yl)-2-(2-(trifluoromethyl)pyridin-4-yl)acrylamide]
[1]
  IC50: < 100 nM
[2]
  IC50: 0.1 to 5 µM
[3]
  IC50: < 100 nM
[4]
  IC50: 100 to 5000 nM
